Laboratory results reported in ChEMBL document CHEMBL1201862, “PubChem BioAssay data set” (2004).
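The compound was tested at five concentrations on cells cultured in 96-well plates, with a 48-hour exposure period. GI50: concentration for 50% inhibition of growth.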 Active and inactive are the calls of the source. No stated cut-off is given here; in the data, active = GI50 up to about 1.1 µM and inactive = higher.

How the values were obtained:
Assay in all cases: NCI tumour cell line growth inhibition, 48 h
786-0 = tested on: 786-0
A498 = tested on: A498
A549 = tested on: A549
ACHN = tested on: ACHN
BT-549 = tested on: BT-549
CAKI-1 = tested on: CAKI-1
CCRF-CEM = tested on: CCRF-CEM
COLO 205 = tested on: COLO 205
DU-145 = tested on: DU-145
EKVX = tested on: EKVX
HCT-116 = tested on: HCT-116
HCT-15 = tested on: HCT-15
HL-60 = tested on: HL-60
HOP-92 = tested on: HOP-92
HT-29 = tested on: HT-29
Hs-578T = tested on: Hs-578T
IGROV-1 = tested on: IGROV-1
K562 = tested on: K562
KM12 = tested on: KM12
LOX IMVI = tested on: LOX IMVI
M14 = tested on: M14
MCF7 = tested on: MCF7
MDA-MB-231 = tested on: MDA-MB-231
MDA-MB-435 = tested on: MDA-MB-435
MDA-N = tested on: MDA-N
MOLT-4 = tested on: MOLT-4
Malme-3M = tested on: Malme-3M
NCI-H23 = tested on: NCI-H23
NCI-H460 = tested on: NCI-H460
NCI-H522 = tested on: NCI-H522
NCI/ADR-RES = tested on: NCI/ADR-RES
OVCAR-3 = tested on: OVCAR-3
OVCAR-4 = tested on: OVCAR-4
OVCAR-5 = tested on: OVCAR-5
OVCAR-8 = tested on: OVCAR-8
PC-3 = tested on: PC-3
RPMI-8226 = tested on: RPMI-8226
RXF 393 = tested on: RXF 393
SF-268 = tested on: SF-268
SF-295 = tested on: SF-295
SF-539 = tested on: SF-539
SK-MEL-28 = tested on: SK-MEL-28
SK-MEL-2 = tested on: SK-MEL-2
SK-MEL-5 = tested on: SK-MEL-5
SK-OV-3 = tested on: SK-OV-3
SN12C = tested on: SN12C
SNB-19 = tested on: SNB-19
SNB-75 = tested on: SNB-75
SR = tested on: SR
SW-620 = tested on: SW-620
T47D = tested on: T47D
TK-10 = tested on: TK-10
U-251 = tested on: U-251
UACC-257 = tested on: UACC-257
UACC-62 = tested on: UACC-62
UO-31 = tested on: UO-31
HOP-62 = tested on: HOP-62
NCI-H226 = tested on: NCI-H226

Measured: GI50

Cc1[nH]c2ccccc2c1/C=N/c1ccc(Oc2ccccc2)cc1
inactive: 786-0 16.3 µM | A498 18.3 µM | A549 17.1 µM | ACHN 16.3 µM | BT-549 14.8 µM | CAKI-1 15.9 µM | CCRF-CEM 7.05 µM | COLO 205 15.9 µM | DU-145 16.1 µM | EKVX 14.1 µM | HCT-116 16.6 µM | HL-60 12.1 µM | HOP-92 12.7 µM | HT-29 17.3 µM | Hs-578T 22.6 µM | IGROV-1 13.4 µM | K562 23.2 µM | KM12 16.2 µM | LOX IMVI 15.5 µM | M14 16.6 µM | MCF7 19.1 µM | MDA-MB-231 15.6 µM | MDA-MB-435 17.2 µM | MDA-N 17.2 µM | MOLT-4 13.8 µM | Malme-3M 19 µM | NCI-H23 16 µM | NCI-H460 20.4 µM | NCI-H522 14.1 µM | NCI/ADR-RES 19.1 µM | OVCAR-3 14.2 µM | OVCAR-4 14.9 µM | OVCAR-5 16.3 µM | OVCAR-8 18.3 µM | PC-3 13.8 µM | RPMI-8226 10.4 µM | RXF 393 16.8 µM | SF-268 14.6 µM | SF-295 14 µM | SF-539 18.1 µM | SK-MEL-28 18.8 µM | SK-MEL-2 18.4 µM | SK-MEL-5 15.2 µM | SK-OV-3 17.5 µM | SN12C 16.6 µM | SNB-19 18 µM | SNB-75 13 µM | SR 19.1 µM | SW-620 18 µM | T47D 18.5 µM | TK-10 16.4 µM | U-251 15.3 µM | UACC-257 17.4 µM | UACC-62 17.9 µM | UO-31 12 µM
18.6 µM: HCT-15

CC1(C)Cc2c(sc3[nH]c(=S)[nH]c(=S)c23)CS1
33.3 µM: HCT-15
inactive: 786-0 85.9 µM | A498 33 µM | A549 59.2 µM | BT-549 46.3 µM | CAKI-1 30.5 µM | CCRF-CEM 29.4 µM | COLO 205 32.1 µM | DU-145 > 100 µM | HCT-116 47 µM | HL-60 33.2 µM | HOP-62 88.3 µM | HOP-92 12.4 µM | HT-29 27.1 µM | Hs-578T 45.2 µM | IGROV-1 29.9 µM | K562 29.2 µM | KM12 45.8 µM | LOX IMVI 32.8 µM | M14 30.2 µM | MCF7 32.8 µM | MDA-MB-231 66.8 µM | MDA-MB-435 29.9 µM | MDA-N 33.9 µM | MOLT-4 43 µM | Malme-3M 20.6 µM | NCI-H226 44.5 µM | NCI-H23 55.3 µM | NCI-H460 40.2 µM | NCI/ADR-RES 43.4 µM | OVCAR-3 26.2 µM | OVCAR-4 18.2 µM | OVCAR-8 90.2 µM | PC-3 25.4 µM | RPMI-8226 25.1 µM | RXF 393 60.8 µM | SF-268 32.7 µM | SF-539 37.9 µM | SK-MEL-28 22.4 µM | SK-MEL-2 38.4 µM | SK-MEL-5 29.6 µM | SK-OV-3 27.7 µM | SN12C 40.5 µM | SNB-19 54.8 µM | SR 48.6 µM | SW-620 53.1 µM | T47D 20.3 µM | TK-10 95.5 µM | U-251 41.9 µM | UACC-257 18.2 µM | UACC-62 18.5 µM | UO-31 31.8 µM
